Laboratory results published in publication PMC3694096, “Development of Novel In Vivo Chemical Probes to Address CNS Protein Kinase Involvement in Synaptic Dysfunction” (PLoS ONE, 2013).
Where two headings read alike, the source gives them in different places.

Columns and labels:
[1] = biological target: T1, Abl (Homo sapiens, UniProt P00519); experiment: Kinome profiler screen; format: biochemical; settings: at 20,000 nM inhibitor; kinase activity remaining
T1 construct: purchased Millipore KinaseProfiler

[2] = biological target: T2, Abl (H396P) (Homo sapiens, UniProt P00519, H396P); experiment: Kinome profiler screen; format: biochemical; settings: at 20,000 nM inhibitor; kinase activity remaining
T2 construct: purchased Millipore KinaseProfiler

[3] = biological target: T3, Abl(T315I) (Homo sapiens, UniProt P00519, T315I); experiment: Kinome profiler screen; format: biochemical; settings: at 20,000 nM inhibitor; kinase activity remaining
T3 construct: purchased Millipore KinaseProfiler

[4] = biological target: T4, BTK(R28H) (Homo sapiens, UniProt Q06187, R28H); experiment: Kinome profiler screen; format: biochemical; settings: at 20,000 nM inhibitor; kinase activity remaining
T4 construct: purchased Millipore KinaseProfiler

[5] = biological target: T5, CHK2 (Homo sapiens, UniProt O96017); experiment: Kinome profiler screen; format: biochemical; settings: at 20,000 nM inhibitor; kinase activity remaining
T5 construct: purchased Millipore KinaseProfiler

[6] = biological target: T6, CK1γ2 (Homo sapiens, UniProt P78368); experiment: Kinome profiler screen; format: biochemical; settings: at 20,000 nM inhibitor; kinase activity remaining
T6 construct: purchased Millipore KinaseProfiler
T6 sequence (P78368 whole entry): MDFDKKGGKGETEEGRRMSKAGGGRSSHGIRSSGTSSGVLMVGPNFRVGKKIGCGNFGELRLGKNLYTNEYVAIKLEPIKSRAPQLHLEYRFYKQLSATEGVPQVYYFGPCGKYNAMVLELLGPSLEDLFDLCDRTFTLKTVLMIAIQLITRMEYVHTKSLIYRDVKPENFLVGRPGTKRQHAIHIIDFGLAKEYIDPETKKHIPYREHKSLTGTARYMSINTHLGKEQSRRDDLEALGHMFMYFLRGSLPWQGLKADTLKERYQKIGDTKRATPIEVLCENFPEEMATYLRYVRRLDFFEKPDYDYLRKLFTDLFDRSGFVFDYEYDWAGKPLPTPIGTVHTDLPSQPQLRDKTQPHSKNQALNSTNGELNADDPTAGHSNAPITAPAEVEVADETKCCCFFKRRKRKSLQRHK

[7] = biological target: T7, CK1δ (Homo sapiens, UniProt P48730); experiment: Kinome profiler screen; format: biochemical
T7 construct: purchased Millipore

[8] = biological target: T8, c-RAF (Homo sapiens, UniProt P04049); experiment: Kinome profiler screen; format: biochemical; settings: for activity at 20 µM: at 20,000 nM inhibitor, kinase activity remaining
T8 construct: purchased Millipore
T8 sequence (P04049 whole entry): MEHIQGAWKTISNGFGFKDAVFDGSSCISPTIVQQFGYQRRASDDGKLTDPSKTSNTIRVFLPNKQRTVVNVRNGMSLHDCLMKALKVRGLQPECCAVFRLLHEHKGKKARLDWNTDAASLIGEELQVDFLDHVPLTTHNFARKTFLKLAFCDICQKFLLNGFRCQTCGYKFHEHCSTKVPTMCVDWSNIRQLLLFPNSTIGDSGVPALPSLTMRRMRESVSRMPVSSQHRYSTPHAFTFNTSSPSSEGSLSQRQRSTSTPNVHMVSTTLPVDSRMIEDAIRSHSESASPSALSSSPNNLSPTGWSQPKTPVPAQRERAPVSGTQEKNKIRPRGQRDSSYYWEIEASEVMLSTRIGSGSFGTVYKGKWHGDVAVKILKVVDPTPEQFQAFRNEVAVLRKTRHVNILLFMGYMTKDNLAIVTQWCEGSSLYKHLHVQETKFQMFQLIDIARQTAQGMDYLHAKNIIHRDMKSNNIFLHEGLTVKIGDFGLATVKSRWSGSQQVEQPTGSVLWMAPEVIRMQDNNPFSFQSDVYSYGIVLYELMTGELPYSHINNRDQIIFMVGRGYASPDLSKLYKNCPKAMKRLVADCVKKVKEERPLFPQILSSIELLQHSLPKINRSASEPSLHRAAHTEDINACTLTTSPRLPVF

[9] = biological target: T9, DAPK1 (Homo sapiens, UniProt P53355); experiment: Kinome profiler screen; format: biochemical; settings: at 20,000 nM inhibitor; kinase activity remaining
T9 construct: purchased Millipore KinaseProfiler

[10] = biological target: T10, DAPK2 (Homo sapiens, UniProt Q9UIK4); experiment: Kinome profiler screen; format: biochemical; settings: at 20,000 nM inhibitor; kinase activity remaining
T10 construct: purchased Millipore KinaseProfiler

[11] = biological target: T11, DRAK1 (Homo sapiens, UniProt Q9UEE5); experiment: Kinome profiler screen; format: biochemical; settings: at 20,000 nM inhibitor; kinase activity remaining
T11 construct: purchased Millipore KinaseProfiler

[12] = biological target: T12, EphB3 (Homo sapiens, UniProt P54753); experiment: Kinome profiler screen; format: biochemical; settings: at 20,000 nM inhibitor; kinase activity remaining
T12 construct: purchased Millipore KinaseProfiler

[13] = biological target: T13, FGFR1 (Homo sapiens, UniProt P11362); experiment: Kinome profiler screen; format: biochemical; settings: at 20,000 nM inhibitor; kinase activity remaining
T13 construct: purchased Millipore KinaseProfiler

[14] = biological target: T14, Flt1 (Homo sapiens, UniProt P17948); experiment: Kinome profiler screen; format: biochemical; settings: for activity at 20 µM: at 20,000 nM inhibitor, kinase activity remaining
T14 construct: purchased Millipore
T14 sequence (P17948 27-1338): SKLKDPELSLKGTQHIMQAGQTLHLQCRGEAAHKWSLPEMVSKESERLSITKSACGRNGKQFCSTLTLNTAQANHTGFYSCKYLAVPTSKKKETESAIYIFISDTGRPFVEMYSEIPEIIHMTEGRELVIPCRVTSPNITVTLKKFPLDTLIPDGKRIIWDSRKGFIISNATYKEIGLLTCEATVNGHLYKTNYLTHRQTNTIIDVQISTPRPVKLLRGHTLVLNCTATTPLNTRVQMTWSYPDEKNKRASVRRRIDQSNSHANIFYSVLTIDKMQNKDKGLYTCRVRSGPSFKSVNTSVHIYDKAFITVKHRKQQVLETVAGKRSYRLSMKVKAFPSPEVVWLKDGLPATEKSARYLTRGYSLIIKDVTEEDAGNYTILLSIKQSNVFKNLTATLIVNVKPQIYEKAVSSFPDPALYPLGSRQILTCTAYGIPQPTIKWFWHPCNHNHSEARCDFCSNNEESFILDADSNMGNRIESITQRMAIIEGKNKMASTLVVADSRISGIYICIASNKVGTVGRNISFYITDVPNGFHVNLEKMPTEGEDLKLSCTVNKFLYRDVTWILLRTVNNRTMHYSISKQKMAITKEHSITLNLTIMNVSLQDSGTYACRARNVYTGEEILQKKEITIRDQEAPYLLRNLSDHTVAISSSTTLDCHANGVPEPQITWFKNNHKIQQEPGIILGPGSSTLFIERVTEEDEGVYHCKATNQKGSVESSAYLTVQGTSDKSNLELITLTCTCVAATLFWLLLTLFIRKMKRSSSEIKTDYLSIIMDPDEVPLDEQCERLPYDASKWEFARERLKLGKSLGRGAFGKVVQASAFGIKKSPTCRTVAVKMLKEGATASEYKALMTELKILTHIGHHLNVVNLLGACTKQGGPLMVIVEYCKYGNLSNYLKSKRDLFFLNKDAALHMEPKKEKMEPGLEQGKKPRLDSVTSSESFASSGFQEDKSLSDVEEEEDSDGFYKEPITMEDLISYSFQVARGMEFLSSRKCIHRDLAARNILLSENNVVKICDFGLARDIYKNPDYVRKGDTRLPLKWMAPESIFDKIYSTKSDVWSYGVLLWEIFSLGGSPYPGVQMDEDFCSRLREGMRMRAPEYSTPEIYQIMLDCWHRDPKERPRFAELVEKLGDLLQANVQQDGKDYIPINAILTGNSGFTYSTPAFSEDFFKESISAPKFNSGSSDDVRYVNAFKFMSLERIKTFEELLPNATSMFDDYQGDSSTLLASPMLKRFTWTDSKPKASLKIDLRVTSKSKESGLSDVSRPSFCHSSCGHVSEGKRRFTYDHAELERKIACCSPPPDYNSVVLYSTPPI

[15] = biological target: T15, Fyn (Homo sapiens, UniProt P06241); experiment: Kinome profiler screen; format: biochemical; settings: at 20,000 nM inhibitor; kinase activity remaining
T15 construct: purchased Millipore KinaseProfiler

[16] = biological target: T16, Haspin (Homo sapiens, UniProt Q8TF76); experiment: Kinome profiler screen; format: biochemical; settings: at 20,000 nM inhibitor; kinase activity remaining
T16 construct: purchased Millipore KinaseProfiler

[17] = biological target: T17, Lck (Homo sapiens, UniProt P06239); experiment: Kinome profiler screen; format: biochemical; settings: at 20,000 nM inhibitor; kinase activity remaining
T17 construct: purchased Millipore KinaseProfiler

[18] = biological target: T18, Lck activated (Homo sapiens, UniProt P06239); experiment: Kinome profiler screen; format: biochemical; settings: at 20,000 nM inhibitor; kinase activity remaining
T18 construct: purchased Millipore KinaseProfiler

[19] = biological target: T19, Lyn (Homo sapiens, UniProt P07948); experiment: Kinome profiler screen; format: biochemical; settings: at 20,000 nM inhibitor; kinase activity remaining
T19 construct: purchased Millipore KinaseProfiler

[20] = biological target: T20, Mer (Homo sapiens, UniProt Q12866); experiment: Kinome profiler screen; format: biochemical; settings: at 20,000 nM inhibitor; kinase activity remaining
T20 construct: purchased Millipore KinaseProfiler

[21] = biological target: T21, Met(Y1248C) (Homo sapiens, UniProt P08581, Y1230C); experiment: Kinome profiler screen; format: biochemical; settings: at 20,000 nM inhibitor; kinase activity remaining
T21 construct: purchased Millipore KinaseProfiler

[22] = biological target: T22, MKK7β (Homo sapiens, UniProt O14733); experiment: Kinome profiler screen; format: biochemical; settings: at 20,000 nM inhibitor; kinase activity remaining
T22 construct: purchased Millipore KinaseProfiler

[23] = biological target: T23, Mnk2 (Homo sapiens, UniProt Q9HBH9); experiment: Kinome profiler screen; format: biochemical; settings: at 20,000 nM inhibitor; kinase activity remaining
T23 construct: purchased Millipore KinaseProfiler

[24] = biological target: T24, MST3 (Homo sapiens, UniProt Q9Y6E0); experiment: Kinome profiler screen; format: biochemical; settings: at 20,000 nM inhibitor; kinase activity remaining
T24 construct: purchased Millipore KinaseProfiler

[25] = biological target: T25, p70S6K (Homo sapiens, UniProt P23443); experiment: Kinome profiler screen; format: biochemical; settings: at 20,000 nM inhibitor; kinase activity remaining
T25 construct: purchased Millipore KinaseProfiler

[26] = biological target: T26, PAK2 (Homo sapiens, UniProt Q13177); experiment: Kinome profiler screen; format: biochemical; settings: at 20,000 nM inhibitor; kinase activity remaining
T26 construct: purchased Millipore KinaseProfiler

[27] = biological target: T27, PAK3 (Homo sapiens, UniProt O75914); experiment: Kinome profiler screen; format: biochemical; settings: at 20,000 nM inhibitor; kinase activity remaining
T27 construct: purchased Millipore KinaseProfiler

[28] = biological target: T28, PAR-1Bα (Homo sapiens, UniProt Q7KZI7); experiment: Kinome profiler screen; format: biochemical; settings: at 20,000 nM inhibitor; kinase activity remaining
T28 construct: purchased Millipore KinaseProfiler

[29] = biological target: T29, PASK (Homo sapiens, UniProt Q96RG2); experiment: Kinome profiler screen; format: biochemical; settings: at 20,000 nM inhibitor; kinase activity remaining
T29 construct: purchased Millipore KinaseProfiler

[30] = biological target: T30, PhKγ2 (Homo sapiens, UniProt P15735); experiment: Kinome profiler screen; format: biochemical; settings: at 20,000 nM inhibitor; kinase activity remaining
T30 construct: purchased Millipore KinaseProfiler

[31] = biological target: T31, PI3K-C2α (Homo sapiens, UniProt O00443); experiment: Kinome profiler screen; format: biochemical; settings: for activity at 20 µM: at 20,000 nM inhibitor, kinase activity remaining
T31 construct: purchased Millipore
T31 sequence (O00443 whole entry): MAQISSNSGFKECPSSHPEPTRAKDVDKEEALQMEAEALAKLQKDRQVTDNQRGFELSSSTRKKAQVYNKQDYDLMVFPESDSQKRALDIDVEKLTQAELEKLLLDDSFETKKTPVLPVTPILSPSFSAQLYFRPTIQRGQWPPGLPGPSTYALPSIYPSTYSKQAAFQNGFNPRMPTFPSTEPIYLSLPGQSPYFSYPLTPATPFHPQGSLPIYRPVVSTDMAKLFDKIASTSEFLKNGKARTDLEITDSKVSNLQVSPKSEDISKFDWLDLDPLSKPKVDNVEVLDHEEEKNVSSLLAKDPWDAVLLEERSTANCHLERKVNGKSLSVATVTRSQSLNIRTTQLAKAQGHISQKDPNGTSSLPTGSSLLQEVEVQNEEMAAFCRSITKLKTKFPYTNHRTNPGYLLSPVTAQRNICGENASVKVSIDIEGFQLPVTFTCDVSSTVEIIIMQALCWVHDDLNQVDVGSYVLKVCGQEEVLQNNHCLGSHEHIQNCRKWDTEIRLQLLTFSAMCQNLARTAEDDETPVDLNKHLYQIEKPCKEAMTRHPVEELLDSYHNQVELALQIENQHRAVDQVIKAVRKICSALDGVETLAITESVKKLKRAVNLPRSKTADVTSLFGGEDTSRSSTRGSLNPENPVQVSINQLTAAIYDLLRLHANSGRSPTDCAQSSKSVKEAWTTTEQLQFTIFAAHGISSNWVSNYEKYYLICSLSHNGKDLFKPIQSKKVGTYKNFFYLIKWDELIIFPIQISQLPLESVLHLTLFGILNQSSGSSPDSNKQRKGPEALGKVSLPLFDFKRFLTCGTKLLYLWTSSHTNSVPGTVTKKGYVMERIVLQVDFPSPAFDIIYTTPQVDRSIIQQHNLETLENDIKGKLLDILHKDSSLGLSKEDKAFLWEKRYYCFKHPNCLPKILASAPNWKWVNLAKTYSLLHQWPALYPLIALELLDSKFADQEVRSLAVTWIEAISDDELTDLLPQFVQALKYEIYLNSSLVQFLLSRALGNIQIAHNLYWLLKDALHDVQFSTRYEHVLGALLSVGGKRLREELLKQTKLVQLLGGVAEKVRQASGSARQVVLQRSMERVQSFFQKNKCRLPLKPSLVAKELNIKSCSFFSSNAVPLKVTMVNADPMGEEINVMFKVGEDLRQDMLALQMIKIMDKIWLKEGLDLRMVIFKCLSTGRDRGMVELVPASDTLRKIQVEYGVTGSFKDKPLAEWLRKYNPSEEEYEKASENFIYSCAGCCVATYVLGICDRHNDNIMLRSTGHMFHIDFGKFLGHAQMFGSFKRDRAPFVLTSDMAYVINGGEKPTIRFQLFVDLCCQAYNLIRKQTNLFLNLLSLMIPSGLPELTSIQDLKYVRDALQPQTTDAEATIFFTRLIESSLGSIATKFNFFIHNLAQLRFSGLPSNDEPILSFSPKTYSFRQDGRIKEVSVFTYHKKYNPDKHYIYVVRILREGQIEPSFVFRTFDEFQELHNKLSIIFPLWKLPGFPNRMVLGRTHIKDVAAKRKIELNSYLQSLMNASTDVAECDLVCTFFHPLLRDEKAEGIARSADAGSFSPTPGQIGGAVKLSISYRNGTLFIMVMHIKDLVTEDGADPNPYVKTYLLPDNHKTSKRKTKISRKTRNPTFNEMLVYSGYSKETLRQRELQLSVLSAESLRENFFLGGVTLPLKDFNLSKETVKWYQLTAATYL

[32] = biological target: T32, PKCβII (Homo sapiens, UniProt P05771); experiment: Kinome profiler screen; format: biochemical; settings: at 20,000 nM inhibitor; kinase activity remaining
T32 construct: purchased Millipore KinaseProfiler

[33] = biological target: T33, Ret(V804M) (Homo sapiens, UniProt P07949, V804M); experiment: Kinome profiler screen; format: biochemical; settings: at 20,000 nM inhibitor; kinase activity remaining
T33 construct: purchased Millipore KinaseProfiler

[34] = biological target: T34, RIPK2 (Homo sapiens, UniProt O43353); experiment: Kinome profiler screen; format: biochemical; settings: at 20,000 nM inhibitor; kinase activity remaining
T34 construct: purchased Millipore KinaseProfiler

[35] = biological target: T35, Rsk4 (Homo sapiens, UniProt Q9UK32); experiment: Kinome profiler screen; format: biochemical; settings: at 20,000 nM inhibitor; kinase activity remaining
T35 construct: purchased Millipore KinaseProfiler

[36] = biological target: T36, SRPK2 (Homo sapiens, UniProt P78362); experiment: Kinome profiler screen; format: biochemical; settings: at 20,000 nM inhibitor; kinase activity remaining
T36 construct: purchased Millipore KinaseProfiler

[37] = biological target: T37, Syk (Homo sapiens, UniProt P43405); experiment: Kinome profiler screen; format: biochemical; settings: at 20,000 nM inhibitor; kinase activity remaining
T37 construct: purchased Millipore KinaseProfiler

[38] = biological target: T38, TAK1 (Homo sapiens, UniProt O43318); experiment: Kinome profiler screen; format: biochemical; settings: at 20,000 nM inhibitor; kinase activity remaining
T38 construct: purchased Millipore KinaseProfiler

[39] = biological target: T39, TAO2 (Homo sapiens, UniProt Q9UL54); experiment: Kinome profiler screen; format: biochemical; settings: at 20,000 nM inhibitor; kinase activity remaining
T39 construct: purchased Millipore KinaseProfiler

[40] = biological target: T40, TBK1 (Homo sapiens, UniProt Q9UHD2); experiment: Kinome profiler screen; format: biochemical; settings: at 20,000 nM inhibitor; kinase activity remaining
T40 construct: purchased Millipore KinaseProfiler

[41] = biological target: T41, TLK2 (Homo sapiens, UniProt Q86UE8); experiment: Kinome profiler screen; format: biochemical; settings: at 20,000 nM inhibitor; kinase activity remaining
T41 construct: purchased Millipore KinaseProfiler
T41 sequence (Q86UE8 whole entry): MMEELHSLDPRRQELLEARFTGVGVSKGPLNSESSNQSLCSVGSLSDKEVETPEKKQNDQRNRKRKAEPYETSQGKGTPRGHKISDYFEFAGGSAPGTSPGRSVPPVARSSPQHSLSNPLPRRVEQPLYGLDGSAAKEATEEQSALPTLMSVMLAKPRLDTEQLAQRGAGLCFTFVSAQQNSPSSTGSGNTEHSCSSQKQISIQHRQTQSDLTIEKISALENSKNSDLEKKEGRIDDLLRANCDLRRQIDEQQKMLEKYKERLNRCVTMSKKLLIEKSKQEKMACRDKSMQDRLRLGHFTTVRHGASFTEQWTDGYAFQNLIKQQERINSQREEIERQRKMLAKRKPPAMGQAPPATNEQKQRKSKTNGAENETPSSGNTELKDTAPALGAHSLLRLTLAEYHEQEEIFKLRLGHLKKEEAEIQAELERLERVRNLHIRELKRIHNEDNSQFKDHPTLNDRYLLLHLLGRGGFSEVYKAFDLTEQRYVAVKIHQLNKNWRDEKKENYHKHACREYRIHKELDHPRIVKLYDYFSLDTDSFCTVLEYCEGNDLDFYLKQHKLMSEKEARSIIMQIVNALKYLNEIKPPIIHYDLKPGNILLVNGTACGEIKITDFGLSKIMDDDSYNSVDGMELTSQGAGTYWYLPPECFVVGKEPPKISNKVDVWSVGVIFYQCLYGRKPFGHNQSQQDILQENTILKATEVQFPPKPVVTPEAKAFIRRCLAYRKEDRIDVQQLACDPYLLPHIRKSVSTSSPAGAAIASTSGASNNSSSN

[42] = biological target: T42, TrkA (Homo sapiens, UniProt P04629); experiment: Kinome profiler screen; format: biochemical
T42 construct: purchased Millipore KinaseProfiler

[43] = biological target: T43, ZAP-70 (Homo sapiens, UniProt P43403); experiment: Kinome profiler screen; format: biochemical; settings: at 20,000 nM inhibitor; kinase activity remaining
T43 construct: purchased Millipore KinaseProfiler

[44] = system: exploratory behavior; experiment: Open-field test; format: in vivo, C57BL/6J mice; settings: time in and entries into center compartment; control test

Compound: CN(C)c1cc(-c2ccncc2)c(-c2ccc3ccccc3c2)nn1 [MW108, N, N-dimethyl-6-(naphthalen-2-yl)-5-(pyridin-4-yl)pyridazin-3-amine]
- activity at 20 µM [1]: 99%
- activity at 20 µM [2]: 94%
- activity at 20 µM [3]: 91%
- activity at 20 µM [4]: 101%
- activity at 20 µM [5]: 97%
- activity at 20 µM [6]: 91%
- activity at 20 µM [7]: 33%
- IC50 [8]: 9.12 µM
- activity at 20 µM [8]: 27%
- activity at 20 µM [9]: 92%
- activity at 20 µM [10]: 101%
- activity at 20 µM [11]: 86%
- activity at 20 µM [12]: 96%
- activity at 20 µM [13]: 93%
- IC50 [14]: > 30 µM
- activity at 20 µM [14]: 38%
- activity at 20 µM [15]: 95%
- activity at 20 µM [16]: 87%
- activity at 20 µM [17]: 62%
- activity at 20 µM [18]: 70%
- activity at 20 µM [19]: 100%
- activity at 20 µM [20]: 98%
- activity at 20 µM [21]: 84%
- activity at 20 µM [22]: 122%
- activity at 20 µM [23]: 99%
- activity at 20 µM [24]: 98%
- activity at 20 µM [25]: 92%
- activity at 20 µM [26]: 103%
- activity at 20 µM [27]: 78%
- activity at 20 µM [28]: 97%
- activity at 20 µM [29]: 88%
- activity at 20 µM [30]: 98%
- IC50 [31]: > 30 µM
- activity at 20 µM [31]: 29%
- activity at 20 µM [32]: 87%
- activity at 20 µM [33]: 85%
- activity at 20 µM [34]: 57%
- activity at 20 µM [35]: 96%
- activity at 20 µM [36]: 95%
- activity at 20 µM [37]: 88%
- activity at 20 µM [38]: 102%
- activity at 20 µM [39]: 81%
- activity at 20 µM [40]: 96%
- activity at 20 µM [41]: 99%
- activity at 20 µM [42]: 91%
- activity at 20 µM [43]: 92%
- exploratory behavior, open field [44]: No differences in exploratory behavior

Compound: CN(C)c1cc(-c2ccncc2)c(-c2cccc3ccccc23)nn1 [MW181, N,N-dimethyl-6-(naphthalen-1-yl)-5-(pyridin-4-yl)pyridazin-3-amine]
- activity at 20 µM [1]: 125%
- activity at 20 µM [2]: 101%
- activity at 20 µM [3]: 107%
- activity at 20 µM [4]: 96%
- activity at 20 µM [5]: 96%
- activity at 20 µM [6]: 96%
- activity at 20 µM [7]: 89%
- activity at 20 µM [8]: 70%
- activity at 20 µM [9]: 99%
- activity at 20 µM [10]: 106%
- activity at 20 µM [11]: 113%
- activity at 20 µM [12]: 102%
- activity at 20 µM [13]: 103%
- activity at 20 µM [14]: 96%
- activity at 20 µM [15]: 109%
- activity at 20 µM [16]: 93%
- activity at 20 µM [17]: 89%
- activity at 20 µM [18]: 84%
- activity at 20 µM [19]: 93%
- activity at 20 µM [20]: 100%
- activity at 20 µM [21]: 100%
- activity at 20 µM [22]: 116%
- activity at 20 µM [23]: 99%
- activity at 20 µM [24]: 98%
- activity at 20 µM [25]: 94%
- activity at 20 µM [26]: 101%
- activity at 20 µM [27]: 122%
- activity at 20 µM [28]: 106%
- activity at 20 µM [29]: 97%
- activity at 20 µM [30]: 93%
- activity at 20 µM [31]: 99%
- activity at 20 µM [32]: 112%
- activity at 20 µM [33]: 102%
- activity at 20 µM [34]: 84%
- activity at 20 µM [35]: 105%
- activity at 20 µM [36]: 109%
- activity at 20 µM [37]: 105%
- activity at 20 µM [38]: 104%
- activity at 20 µM [39]: 94%
- activity at 20 µM [40]: 98%
- activity at 20 µM [41]: 107%
- activity at 20 µM ([42]; at 20,000 nM inhibitor, kinase activity remaining, read-out: % Activity): 109%
- activity at 20 µM [43]: 99%
- exploratory behavior, open field [44]: No differences in exploratory behavior
